In assay [1] the test system is reset cells and conventional PSC. The assay can be described thus: Proliferation / colony formation in 2-deoxyglucose. The following applies: reset cells in contrast to conventional PSC, 7 days. In kind it is cell-based, human. The procedure: C & D. Proliferation in 2-deoxyglucose. After single cell dissociation, 3×10^4 cells were seeded on 12 wells and cultured for 7 days with indicated concentrations of 2-deoxyglucose (2DG) or reduced glucose. ROCKi was added to conventional PSC.
We examined functional consequences of altered metabolic properties by culture in 2-deoxyglucose to inhibit glycolysis and in reduced concentrations of glucose to increase dependency on mitochondrial respiration.

Assay [2] has as its system HNES cells. The assay can be described thus: Colony formation of HNES cells in 2-deoxyglucose. The class given is cell-based, human. The following applies: HNES cells versus HNES-primed cells. From the text:
Primed PSC rely on anaerobic glycolysis with very low mitochondrial respiration capacity (Zhou et al., 2012). […] We evaluated the capacity of HNES cells to form colonies in the presence of the glycolysis inhibitor 2-deoxyglucose. […] HNES cells also stained intensely with MitoProbe™ DilC1, reflecting mitochondrial membrane potential (not shown).

Regarding `O=CC[C@@H](O)[C@H](O)[C@H](O)CO` [2-deoxyglucose], the “colony formation in the presence of 2-deoxyglucose” value was “reset cells formed undifferentiated colonies” in assay [1] and “Undifferentiated HNES cells readily formed colonies while HNES-primed cells did not survive” in assay [2].

(Values after patent publication US10894948B2, “Resetting pluripotent stem cells” (CAMBRIDGE ENTERPRISE LIMITED, priority 2014, dated 2021).)
